# Where two headings read alike, the source gives them in different places.
# Target: T1, mouse CB1 receptor (Mus musculus, UniProt P47746)
# T1 construct: radioligand displacement assay using mouse brain plasma membranes; from tissue; host or cells: mouse brain plasma membranes
# Test: radioligand displacement assay using mouse brain plasma membranes and 3H-CP55540
# Type: binding
# Description: In addition, the compounds disclosed herein may be less lipophilic.
# T1 sequence (P47746 whole entry): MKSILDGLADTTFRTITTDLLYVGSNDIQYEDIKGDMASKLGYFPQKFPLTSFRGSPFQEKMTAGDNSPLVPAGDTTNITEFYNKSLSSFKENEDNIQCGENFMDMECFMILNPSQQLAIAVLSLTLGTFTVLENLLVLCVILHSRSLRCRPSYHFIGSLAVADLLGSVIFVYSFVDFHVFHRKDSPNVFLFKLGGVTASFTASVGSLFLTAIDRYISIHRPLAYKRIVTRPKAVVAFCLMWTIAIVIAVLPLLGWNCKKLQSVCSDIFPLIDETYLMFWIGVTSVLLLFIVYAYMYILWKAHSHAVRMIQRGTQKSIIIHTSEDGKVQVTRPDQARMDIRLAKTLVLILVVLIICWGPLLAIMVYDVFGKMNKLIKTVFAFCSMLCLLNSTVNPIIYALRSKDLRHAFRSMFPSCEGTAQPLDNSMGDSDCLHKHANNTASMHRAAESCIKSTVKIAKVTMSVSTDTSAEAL
SMILES,"Ki (mouse brain plasma membranes, 3H-CP55540 as labeled ligand, read-out: Ki CB1) [nM]",Ki [nM]
CC(=O)NC(=N)NC(=NS(=O)(=O)N1CCC(F)(F)CC1)N1CC(c2ccccc2)C(c2ccc(Cl)cc2)=N1 (stereo not drawn) [MRI-1950],1.2,
CC(C)(C)/C(N)=N/C(=N/S(=O)(=O)N1CCC(F)(F)CC1)N1CC(c2ccccc2)C(c2ccc(Cl)cc2)=N1 (stereo not drawn) [Table 1 Serial # 10],,21
C/C(N)=N/C(=N/S(=O)(=O)N1CCC(C(F)(F)F)CC1)N1CC(c2ccccc2)C(c2ccc(Cl)cc2)=N1 (stereo not drawn) [Table 1 Serial # 13],,3
